Data reported in patent US5041441A, “Method of chemotherapy using 1-phenyl-2-decanoylamino-3-morpholino-1-propanol” (The Regents of the University of Michigan, priority 1988, dated 1991).

Assay: Toxicity test in normal, noncancerous mice
Assay type: in vivo
Experimental: Ten normal, noncancerous mice were injected with D-threo-PDMP daily for 10 days, then killed 5 hours later with the results set forth in Table 4.
The preceding experiment was repeated in order to observe less evancescent responses: the mice were killed 40 hours after the last injection following 12 daily injections. Here, of the absolute weights, only the kidneys were statistically different in treated mice, 11% smaller (p less than 0.05%). Comparing the 40 hour and 5 hour experiments it seems likely that the liver weights renormalized faster than the kidneys, perhaps a reflection of faster glucolipid turnover.
This failure to harm the bone marrow and related systems compares favorably with the high toxicity of many antineoplastics.

[1] = 100 mg/kg/day, 10 injections, killed 5 hours later

CCCCCCCCCC(=O)N[C@H](CN1CCOCC1)[C@H](O)c1ccccc1 [D-threo-PDMP, 1-Phenyl-2-Decanoylamino-3-Morpholino-1-Propanol]
Average body weight gain of treated mice (100 mg/kg/day, 10 injections, controls gained 4.5 g): 2.1 g
Body weight smaller than controls [1]: 8%
Brain Weight [1]: 0.444 g
Brain Weight (% of body) [1]: 1.67 % of body
Kidney Weight [1]: 0.329 g
Kidney Weight (% of body) [1]: 1.24 % of body
Kidney weight smaller than controls [1]: 17%
Liver Weight [1]: 1.32 g
Liver Weight (% of body) [1]: 4.97 % of body
Liver weight smaller than controls [1]: 18%
Spleen Weight [1]: 0.095 g
Spleen Weight (% of body) [1]: 0.36 % of body
Spleen size compared with controls [1]: slightly but not significantly smaller
Body Weight (100 mg/kg/day, 10 injections, killed 5 hours later, initial mean 24.4 g): 26.5 g
Brain weight smaller than controls (100 mg/kg/day, 10 injections, killed 5 hours later, p less than 0.025): 4.6%
Cell counts on orbital blood (RBC, WBC, differential monocytes, lymphocytes, eosinophiles, neutrophils) (12 daily injections): no abnormalities
Kidney weight (absolute) smaller than controls (12 daily injections, killed 40 hours after the last injection): 11%
